From US20240424019A1, “SHP1 MODIFIED DENDRITIC CELLS AND EXTRACELLULAR VESICLES DERIVED THEREFROM AND ASSOCIATED METHODS” (BOARD OF REGENTS, THE UNIVERSITY OF TEXAS SYSTEM, priority 2021, published 2024)
pKd: −log10 of the molar value.

Assays:
purified SHP1 = purified SHP1 (Homo sapiens, UniProt P29350); test: Microscale thermophoresis (MST) binding assay; conditions: mean of triplicates; read-out: apparent dissociation constant Kd
Description: FIG. 3A: Volcano plot of reverse phase protein array (RPPA) data of mouse BMDCs treated with VitE (50 μg/ml) compared to those treated with vehicle control with tumor conditioned media (TCM) for 48 hours (n=3 independent samples). […] The grey dashed line indicates P-value of 0.05. FIG. 3B: t-SNEs by CyTOF and quantification comparing the intensity of pY564-SHP1 in TADCs from the vehicle-or VitE-treated EMT6 tumors at day 15 post-implantation. FIG. 3C: Top, SHP1 knockdown in BMDCs was effective. Bottom, CFSE-dilution analysis of OT-1 T cells co-cultured with OVA protein-pulsed BMDCs (ratio 10:1) with knockdown of SHP1 by siPtpn6 versus siCtrl (n=3). Right, quantification of OT-1 T-cell numbers under the indicated condition. FIG. 3D: The binding of VitE to purified SHP1 is analyzed by microscale thermophoresis (MST) binding assay. […] FIG. 3E: Relative tyrosine phosphatase activity of SHP1 immunoprecipitated from LPS (100 ng/ml)-activated DC2.4 cells in the presence of indicated doses of VitE (mean of triplicates). FIG. 3F: SHP1 tyrosine phosphatase activity in LPS (100 ng/ml)-activated BMDCs (n=6) treated with vehicle-or VitE (50 μg/ml). Error bars, s.e.m. ns, no significant. *P<0.05, **P<0.01. ***P<0.001, ****P<0.0001. […]

SHP1 = molecular target: T1, SHP1 (Mus musculus, UniProt P29351); test: SHP1 tyrosine phosphatase activity in LPS-activated BMDCs; format: cell-based; conditions: VitE 50 μg/ml vs vehicle, LPS 100 ng/ml stimulation
T1 construct: We immunoprecipitated SHP1 from the vehicle or VitE-treated DC2.4 cells or BMDCs with a monoclonal SHP1 antibody; endogenous in cells
Excerpt: FIG. 3A: […] FIG. 3B: t-SNEs by CyTOF and quantification comparing the intensity of […]-SHP1 in TADCs from the vehicle-or VitE-treated EMT6 tumors at day 15 post-implantation. FIG. 3C: Top, SHP1 knockdown in BMDCs was effective. Bottom, CFSE-dilution analysis of OT-1 T cells co-cultured with OVA protein-pulsed BMDCs (ratio 10:1) with knockdown of SHP1 by […]6 versus siCtrl (n=3). Right, quantification of OT-1 T-cell numbers under the indicated condition. FIG. 3D: The binding of VitE to purified SHP1 is analyzed by microscale thermophoresis (MST) binding assay. […] FIG. 3E: Relative tyrosine phosphatase activity of SHP1 immunoprecipitated from LPS (100 ng/ml)-activated DC2.4 cells in the presence of indicated doses of VitE (mean of triplicates). FIG. 3F: SHP1 tyrosine phosphatase activity in LPS (100 ng/ml)-activated BMDCs (n=6) treated with vehicle-or VitE (50 μg/ml). Error bars, s.e.m. ns, no significant. *P<0.05, **P<0.01. ***P<0.001, ****P<0.0001. Bone marrow (BM) was harvested from C57BL/6J, BALB/Cj mice by flushing femurs, tibias, and humeri with DCs culture medium. […] We assessed the phosphatase activity of SHP1 by using the RediPlate 96 EnzChek Tyrosine Phosphatase Assay Kit (ThermoFisher). […] We placed beads into RediPlate wells and incubated them for 30 min at 25° C. before reading them for fluorescence. […]

B16-GMCSF melanoma = B16-GMCSF melanoma model; format: in vivo, mouse

purified SHP1, sequence (P29350 whole entry): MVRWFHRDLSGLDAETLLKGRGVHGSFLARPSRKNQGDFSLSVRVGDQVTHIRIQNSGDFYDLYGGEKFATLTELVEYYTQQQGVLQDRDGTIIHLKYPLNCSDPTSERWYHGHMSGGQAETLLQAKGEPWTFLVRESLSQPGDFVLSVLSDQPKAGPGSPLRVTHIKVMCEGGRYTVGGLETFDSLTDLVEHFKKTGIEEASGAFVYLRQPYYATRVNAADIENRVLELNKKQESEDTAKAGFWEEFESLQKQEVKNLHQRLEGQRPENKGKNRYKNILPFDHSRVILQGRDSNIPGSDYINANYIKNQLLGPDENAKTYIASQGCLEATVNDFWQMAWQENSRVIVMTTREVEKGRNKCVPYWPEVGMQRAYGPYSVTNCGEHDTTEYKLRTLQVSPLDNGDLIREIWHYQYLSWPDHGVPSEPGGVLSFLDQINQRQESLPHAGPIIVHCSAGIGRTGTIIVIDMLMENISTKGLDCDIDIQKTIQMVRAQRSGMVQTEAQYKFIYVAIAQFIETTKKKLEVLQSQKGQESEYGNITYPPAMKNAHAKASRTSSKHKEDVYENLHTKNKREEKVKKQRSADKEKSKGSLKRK
T1 sequence (P29351 whole entry): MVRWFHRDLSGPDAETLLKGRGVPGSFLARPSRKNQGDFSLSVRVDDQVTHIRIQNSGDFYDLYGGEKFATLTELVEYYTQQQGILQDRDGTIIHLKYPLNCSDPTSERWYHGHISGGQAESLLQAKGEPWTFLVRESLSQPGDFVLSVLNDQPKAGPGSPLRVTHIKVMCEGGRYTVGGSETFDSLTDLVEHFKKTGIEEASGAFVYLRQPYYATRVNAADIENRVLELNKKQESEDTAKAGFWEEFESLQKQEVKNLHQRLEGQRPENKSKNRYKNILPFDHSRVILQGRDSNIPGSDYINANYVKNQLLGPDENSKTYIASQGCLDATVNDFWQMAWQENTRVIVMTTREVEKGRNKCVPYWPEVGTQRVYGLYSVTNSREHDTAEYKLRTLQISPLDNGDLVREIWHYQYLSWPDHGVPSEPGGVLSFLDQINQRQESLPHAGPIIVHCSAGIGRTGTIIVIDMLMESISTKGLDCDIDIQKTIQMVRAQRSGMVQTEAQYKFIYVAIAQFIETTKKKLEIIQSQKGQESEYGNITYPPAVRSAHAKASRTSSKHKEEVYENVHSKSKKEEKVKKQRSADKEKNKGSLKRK

For `Cc1c(C)c2c(c(C)c1O)CC[C@@](C)(CCC[C@H](C)CCC[C@H](C)CCCC(C)C)O2` [VitE, D-α-Tocopherol], the pKd (purified SHP1) was 4.41, the “SHP1 activity in BMDCs” value (SHP1) was “marked reduction of SHP1 function” and the tumor growth (B16-GMCSF melanoma; GVAX+VitE (50 mg/kg/day oral gavage day 4-20)) was “significant tumor inhibition”. For the same molecule, the “tumor-infiltrating GZMB+CD8+ T cells” value (B16-GMCSF melanoma; GVAX+VitE, day 14 post-implantation) was “increased tumor-infiltrating cytolytic GZMB CD8^+ T cells” and the therapeutic response (B16-GMCSF melanoma; VitE 50 mg/kg and ICT (anti-PD1) combo-treatment) was “significantly improved therapeutic response”.
